Source: US9687488B2, “Compositions and methods for increasing neurotrophic peptides” (Saint Louis College of Pharmacy, priority 2012, dated 2017)

Key:
[1] = test system: progranulin levels in cortical neuron cultures; test: Dot blot / immunoblotting of progranulin in primary cortical neuron cultures; type: cell-based, Murine; conditions: primary cortical neurons, 24 hours; for accumulation of progranulin: dot blot (FIG. 5), repeat triplicate experiments
Experimental: (§1) Murein E14-E15 cortices were dissected and removed to Hanks Balanced Salt Solution (HBSS) The tissue was dissociated with 0.05% trypsin in HBSS for 10 min at 37° C., and then filtered through a 70 µm cell strainer. Cells were plated on poly-D-lysine (PDL)-coated plates at −3.2×10^5 cells/cm^2 in CEMEM (10% fetal bovine serum, 10% horse serum, 2 mM L-glutamine, and 1% penicillin/streptomycin) for 45 min in a 37° C. humidified tri-gas incubator (5% CO2 and 5% 02). The medium was changed to Neurobasal medium (Invitrogen, Carlsbad, Calif.) with a B27 supplement (Gibco) containing antioxidants (NB plus AO) to specifically enhance neuronal growth. After 3 days the media were half changed with NB plus AO. All treatments were done at day 5 with complete media change containing vehicle, SAHA (suberoyl anilide hydroxamic acid; Vorinostat), and test compounds at final concentrations ranging from 125 μM to 1 nM for 24 hours.
Culture medium was collected and cells were lysed in lysis buffer containing 50 mM Tris-HCl, pH 7.5, 150 mM sodium chloride, 1% Nonidet P-40, 0.5% sodium deoxycholate, 1 mM sodium orthovanadate, 5 mM sodium fluoride, and a protease inhibitor cocktail. Sample concentrations were determined to ensure equal loading, placed in Laemmli sample buffer containing B-mercaptoethanol, and denatured at 100° C. for 5 min. Proteins were separated on a 4% stacking and 12% resolving SDS-PAGE Tris-glycine gel, transferred to polyvinylidene difluoride membrane (Millipore), and blocked in 5% instant milk or 5% bovine serum albumin in Tris-buffered saline with 0.1% Tween for 1 hour. For immunoblotting, primary antibodies were incubated overnight at 4° C. with 1/1000 tubulin (Developmental Studies Hybridoma), and 1/1000 Progranulin (ProteinTech Group). 15 μL of media was loaded from each sample. Ponceau red staining on the membrane before immunological probing was used to show equal loading to look for secreted progranulin and survival of motor neurons protein.

primary cortical neurons = test: MTS cell viability assay; type: cell-based, murine; conditions: 24 hours
Experimental: as §1, with “hours. The MTS non-radioactive cell viability assay employed [3-(4,5-dimethylthiazol-2-yl)-5-(3-carboxymethoxyphenyl)-2-(4-sulfophenyl)-2H-tetrazolium, inner salt with phenazine methosulfate added as an electron coupling reagent, MTS is bioreduced by cells into a formazan product that is soluble in tissue culture medium and can be measured at 490 nm. MTS was performed at 24 hours per manufacturer recommendations (Promega, G5421).” for “hours.”

[2] = test system: survival motor neuron (SMN) protein in cortical neurons; test: Immunoblotting of SMN protein in cortical neuron cultures; type: cell-based, murine; conditions: immunoblot against tubulin (FIG. 6)
Experimental: as §1
Culture medium was collected and cells were lysed in lysis buffer containing 50 mM Tris-HCl, pH 7.5, 150 mM sodium chloride, 1% Nonidet P-40, 0.5% sodium deoxycholate, 1 mM sodium orthovanadate, 5 mM sodium fluoride, and a protease inhibitor cocktail. Sample concentrations were determined to ensure equal loading, placed in Laemmli sample buffer containing B-mercaptoethanol, and denatured at 100° C. for 5 min. […]

Compound	effective dose for progranulin accumulation [1]	accumulation of progranulin [1]	toxicity to the neurons (primary cortical neurons)	cellular concentration of survival motor neuron (SMN) protein [2]
COc1ccc(Cl)cc1NC(=O)CS(=O)(=O)c1ccccc1 [Compound 3, 2-(benzenesulfonyl)-N-(5-chloro-2-methoxyphenyl)acetamide]	effective in extremely low doses	elicited accumulation of progranulin	apparently nontoxic	–
COc1ccc(-c2c(C)nn3c(=O)cc(Cc4ccccc4)[nH]c23)cc1OC [Compound 1, 5-benzyl-3-(3,4-dimethoxyphenyl)-2-methyl-4H,7H-pyrazolo[1,5,a]pyrimidin-7-one]	effective in extremely low doses	elicited accumulation of progranulin	apparently nontoxic	–
CCN(CC(=O)Nc1ccccc1C)S(=O)(=O)c1ccc(OC)cc1 [Compound 4, 2-(N-ethyl-4-methoxybenzenesulfonamido)-N-(2-methylphenyl) acetamide]	–	–	–	dramatically increase
CC(=O)N(c1ccc(Oc2ccccc2)cc1)C1C=CS(=O)(=O)C1 (centres unmarked) [Compound 2, N-(1,1-dioxo-2,3-dihydro-1-[…]^6-thiophene-3-yl)-N-(4-phenoxyphenyl)acetamide]	–	–	–	dramatically increase
